# From paper PMC12384813
# Where two headings read alike, the source gives them in different places.
# Legend:
# [1] = set-up: method as in PMID 30023392; details: daily cisplatin for 5 days before radiation ref 24; cited from earlier work
# [2] = tested on: SVG p12 normal glial cells
# U87 MG cells [3] = assay: cells; type: cell-based, human; details: U87 MG
# Procedure: In this procedure, U87 MG (2 × 10^4 cells per well) were seeded in BD falcon transparent 96-well plates and incubated for 24 h.
# U87 MG cells [4] = assay: Efflux kinetics of ^64Cu-NOTA conjugates; type: cell-based, human; details: Table S3
# Procedure: (§1) U87 MG (1 × 10^5 per well) were seeded in corning 24-well plates and cultured in DMEM with 10% FBS at 37 °C. […] For uptake assay, cells were washed with PBS to collect surface-bound and internalized activity, and for internalization assay, glycine-HCl wash was performed to remove surface bound activity. Moreover, cells were harvested, counted, and radioactivity was measured using a gamma counter. Results were expressed as percentage of total activity (%) in counts per min (CPM)/10^6 cells. For efflux studies, U87 MG cells were incubated with the complexes for 1 h, then washed with PBS, and replaced with fresh medium. The retained activity was measured over 0 to 24 h after washing.
# [5] = Plasma stability by radio-TLC; type: in vitro ADME; details: 48 h, 37 °C, mouse plasma
# Procedure: To precipitate plasma proteins, the samples were treated twice with ethanol (1:1, v/v), vortexed for 1 min, and centrifuged at 7000 rpm for 10 min. The soluble fraction was separated by ultracentrifugation, and radioactivity was measured. The resulting supernatant was analyzed by radio-TLC on C18 plates. […] Radio-TLC was developed using 0.1 M sodium citrate buffer (pH 5.5), and radiodetection was performed with an Instant Imager system (BioScan, Washington, DC, USA) (Figure S5C). The supernatant fraction was then analyzed using the same methodology described above.
# U87 MG cells [6] = assay: Internalization of ^64Cu-NOTA conjugates (glycine-HCl wash); type: cell-based, human
# Procedure: as §1
# SVG p12 cells [7] = assay: Subcellular localization (nucleus/cytoplasm fractions); type: cell-based, human
# Procedure: (§2) The nucleus and cytoplasm of U87 MG and SVG p12 cells were extracted following established procedures as previously reported. […] After incubation, cells were washed and incubated on ice with CSK buffer (0.5% Triton X-100, 300 mM sucrose, 100 mM NaCl, 1 mM EDTA, 2 mM MgCl2, and 10 mM HEPES, pH 6.8) for 2 min. After 5 min centrifugation, supernatant containing cytoplasmic extract was collected and transferred in labeled tubes. The resulting pellets were incubated on ice for 2 min with CSK buffer without Triton X-100 to extract the nuclear fraction. The buffer containing the nuclear fraction was collected into separate tubes. The radioactivity in both cytoplasmic and nuclear fractions was measured using a gamma counter (HIDEX Automatic Gamma Counter 2014).
# U87 MG cells [8] = assay: as above; type: cell-based, human
# Procedure: as §2
# U87 MG cells [9] = assay: Cellular uptake of ^64Cu-NOTA conjugates; type: cell-based, human
# Procedure: as §1
# SVG p12 cells [10] = assay: Cellular uptake of ^64Cu-NOTA conjugates; type: cell-based, human; details: Table S1
# bovine serum albumin = bovine serum albumin (Bos taurus, UniProt P02769); assay: Binding to bovine serum albumin; type: in vitro ADME
# SVG p12 cells [11] = assay: Internalization of ^64Cu-NOTA conjugates (glycine-HCl wash); type: cell-based, human; details: Table S2
# SVG p12 cells [12] = assay: Efflux kinetics of ^64Cu-NOTA conjugates; type: cell-based, human; details: Table S3
# [13] = biological target: T1, αvβ3 integrins on human GBM (U87 MG) cell (Homo sapiens, UniProt P05106+P06756); assay: Competition assay against [^64Cu]Cu-NOTA-c(RGDfK) on U87 MG cells; type: binding; details: in competition to [^64Cu]Cu-NOTA-c(RGDfK), 1 h incubation
# T1 construct: host or cells: U87 MG
# [14] = 0.5 h after 1 h incubation and wash
compound,measurement,setting,value
N.N.[Cl][Pt][Cl] [Cisplatin],increase of treatment efficacy compared to radiotherapy alone,[1],35%
same,EC50,[2],15 ± 5 µM
same,EC50,"[2]; read-out: EC50 24 h SVG p12, 24 h, SVG p12",35 ± 4 µM
same,EC50,"[2]; read-out: EC50 48 h SVG p12, 48 h, SVG p12",15 ± 7 µM
same,EC50,"U87 MG cells [3]; 24 h, read-out: EC50 24 h U87 MG",90 ± 8 µM
same,EC50,"U87 MG cells [3]; 48 h, read-out: EC50 48 h U87 MG",25 ± 6 µM
same,EC50,"U87 MG cells [3]; 72 h, read-out: EC50 72 h U87 MG",20 ± 5 µM
N=C(N)NCCC[C@@H]1NC(=O)[C@H](CCCCNC(=O)[C@H](CCCCNC(=O)c2cc(-c3ccccn3)nc(-c3ccccn3)c2)NC(=O)COCCOCCNC(=O)CN2CCN(CC(=O)O)CCN(CC(=O)O)CC2)NC(=O)[C@@H](Cc2ccccc2)NC(=O)[C@H](CC(=O)O)NC(=O)CNC1=O [metal not drawn],Efflux (retained activity) 0.5h U87 MG,U87 MG cells [4]; [14],88.93 ± 9.47 % total activity (CPM) /106 cells
same,Efflux (retained activity) 1h U87 MG,U87 MG cells [4]; 1 h after wash,93.32 ± 1.47 % total activity (CPM) /106 cells
same,Efflux (retained activity) 2h U87 MG,U87 MG cells [4]; 2 h after wash,83.19 ± 4.21 % total activity (CPM) /106 cells
same,Efflux (retained activity) 4h U87 MG,U87 MG cells [4]; 4 h after wash,76.55 ± 2.59 % total activity (CPM) /106 cells
same,Efflux (retained activity) 24h U87 MG,U87 MG cells [4]; 24 h after wash,51.36 ± 2.08 % total activity (CPM) /106 cells
same,toxicity in normal SVG p12 astrocytes,[2],minimal toxicity
same,free ^64Cu in plasma supernatant by radio-TLC,[5],no detectable free ^64Cu
same,Internalized activity 1h U87 MG,"U87 MG cells [6]; 1 h, Table S2",5.50 ± 0.80 % total activity (CPM) /106 cells
same,internalized fraction,"U87 MG cells [6]; 1 h, U87 MG",5.5 ± 0.8 % CPM/10^6 cells
same,Internalized activity 2h U87 MG,"U87 MG cells [6]; 2 h, Table S2",5.67 ± 0.67 % total activity (CPM) /106 cells
same,Internalized activity 4h U87 MG,"U87 MG cells [6]; 4 h, Table S2",7.35 ± 1.31 % total activity (CPM) /106 cells
same,internalization in U87 MG cells,U87 MG cells [6]; 24 h,28.0 ± 1.0%
same,Internalized activity 24h U87 MG,"U87 MG cells [6]; 24 h, Table S2",28.03 ± 1.02 % total activity (CPM) /106 cells
same,internalization compared to [^64Cu]Cu-NOTA-TP,"U87 MG cells [6]; 24 h, U87 MG",over 1.5 fold
same,internalization compared to [^64Cu]Cu-NOTA-c(RGDfK),"U87 MG cells [6]; 24 h, U87 MG",more than 2.4 fold
same,internalized fraction,"U87 MG cells [6]; 24 h, U87 MG",28.0 ± 1.0 % CPM/10^6 cells
same,Internalized activity 48h U87 MG,"U87 MG cells [6]; 48 h, Table S2",24.08 ± 1.63 % total activity (CPM) /106 cells
same,nuclear uptake,"SVG p12 cells [7]; SVG p12, 24 h",2.5 ± 0.8%
same,nuclear uptake,"SVG p12 cells [7]; SVG p12, 48 h",0.9 ± 0.2%
same,nuclear uptake,"SVG p12 cells [7]; SVG p12, 72 h",0.9 ± 0.3%
same,cytoplasmic distribution,U87 MG cells [8]; 24 h,17.4 ± 1.5%
same,nuclear uptake,U87 MG cells [8]; 24 h,6.0 ± 0.5%
same,cytoplasmic distribution,U87 MG cells [8]; 48 h,21.0 ± 0.7%
same,cytoplasmic distribution,U87 MG cells [8]; 72 h,15.4 ± 0.5%
same,Uptake 1h U87 MG,"U87 MG cells [9]; 1 h, 37 °C, Table S1",6.21 ± 1.58 % total activity (CPM) /106 cells
same,Uptake 2h U87 MG,"U87 MG cells [9]; 2 h, Table S1",6.89 ±1.73 % total activity (CPM) /106 cells
same,Uptake 4h U87 MG,"U87 MG cells [9]; 4 h, Table S1",10.33 ± 1.86 % total activity (CPM) /106 cells
same,uptake in U87 MG cells,U87 MG cells [9]; 24 h,38.8 ± 1.8%
same,Uptake 24h U87 MG,"U87 MG cells [9]; 24 h, Table S1",38.76 ± 1.82 % total activity (CPM) /106 cells
same,uptake relative to [^64Cu]Cu-NOTA-TP,"U87 MG cells [9]; 24 h, U87 MG",approximately 1.3 times
same,uptake relative to [^64Cu]Cu-NOTA-c(RGDfK),"U87 MG cells [9]; 24 h, U87 MG",~2.7 times
same,Uptake 48h U87 MG,"U87 MG cells [9]; 48 h, Table S1",37.56 ± 1.30 % total activity (CPM) /106 cells
same,Uptake 1h SVG p12,SVG p12 cells [10]; 1 h,3.63 ± 0.21 % total activity (CPM) /106 cells
same,Uptake 2h SVG p12,SVG p12 cells [10]; 2 h,4.96 ± 0.89 % total activity (CPM) /106 cells
same,Uptake 4h SVG p12,SVG p12 cells [10]; 4 h,5.80 ± 0.49 % total activity (CPM) /106 cells
same,Uptake 24h SVG p12,SVG p12 cells [10]; 24 h,10.87 ± 2.17 % total activity (CPM) /106 cells
same,Uptake 48h SVG p12,SVG p12 cells [10]; 48 h,8.38 ± 1.70 % total activity (CPM) /106 cells
same,binding to bovine serum albumin,bovine serum albumin,52%
same,Internalized activity 1h SVG p12,SVG p12 cells [11]; 1 h,2.85 ± 0.56 % total activity (CPM) /106 cells
same,Internalized activity 2h SVG p12,SVG p12 cells [11]; 2 h,2.46 ± 0.90 % total activity (CPM) /106 cells
same,Internalized activity 4h SVG p12,SVG p12 cells [11]; 4 h,2.79 ± 0.38 % total activity (CPM) /106 cells
same,Internalized activity 24h SVG p12,SVG p12 cells [11]; 24 h,7.40 ± 1.43 % total activity (CPM) /106 cells
same,Internalized activity 48h SVG p12,SVG p12 cells [11]; 48 h,8.21 ± 0.74 % total activity (CPM) /106 cells
same,improvement in potency compared to nonradioactive analogue,"U87 MG cells [3]; 24 h, vs ^natCu-NOTA-TP-c(RGDfK)",approximately 2500 fold
same,Efflux (retained activity) 0.5h SVG p12,SVG p12 cells [12]; [14],85.25 ± 8.63 % total activity (CPM) /106 cells
same,Efflux (retained activity) 1h SVG p12,SVG p12 cells [12]; 1 h after wash,75.50 ± 10.93 % total activity (CPM) /106 cells
same,Efflux (retained activity) 2h SVG p12,SVG p12 cells [12]; 2 h after wash,54.29 ± 8.47 % total activity (CPM) /106 cells
same,Efflux (retained activity) 4h SVG p12,SVG p12 cells [12]; 4 h after wash,59.78 ± 2.75 % total activity (CPM) /106 cells
same,Efflux (retained activity) 24h SVG p12,SVG p12 cells [12]; 24 h after wash,31.32 ± 1.01 % total activity (CPM) /106 cells
"N=C(N)NCCC[C@@H]1NC(=O)[C@H](CCCCNC(=O)CNC(=O)COCCOCCNC(=O)CN2CCN(CC(=O)O)CCN(CC(=O)O)CC2)NC(=O)[C@@H](Cc2ccccc2)NC(=O)[C@H](CC(=O)O)NC(=O)CNC1=O [^natCu-NOTA-c(RGDfK), metal not drawn]",IC50,[13],0.0106 ± 0.0032 µM
